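Results reflect a 48-hour exposure of cells in 96-well plates to compound at five concentrations. At the GI50, growth is halved.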 Active and inactive are the calls of the source. No stated cut-off is given here; in the data, active = GI50 up to about 1.1 µM and inactive = higher.
Columns and labels:
Assay in all cases: NCI tumour cell line growth inhibition, 48 h
Hs-578T = tested on: Hs-578T
PC-3 = tested on: PC-3
MCF7 = tested on: MCF7
MDA-MB-231 = tested on: MDA-MB-231
DMS-114 = tested on: DMS-114
DLD-1 = tested on: DLD-1
HOP-18 = tested on: HOP-18
XF498 = tested on: XF498

Measured: GI50

Cn1c(=S)c2nc(SCCCc3ccccc3)[nH]c2n(C)c1=O
inactive: Hs-578T > 100 µM | PC-3 36.8 µM | MCF7 22.1 µM | MDA-MB-231 42.5 µM

O=C1Nc2ccccc2/C1=N/Nc1ccccc1Cl
inactive: Hs-578T 22.3 µM | PC-3 > 100 µM | MCF7 > 100 µM | MDA-MB-231 10.3 µM

Cc1ccc(-c2cs/c(=N\c3ccccc3)n2NC(=O)c2ccncc2)cc1
inactive: Hs-578T 57.5 µM | PC-3 27.4 µM | MCF7 33.3 µM | MDA-MB-231 51.5 µM

CCOc1ccccc1-c1nc2c(s1)C(=O)c1ccccc1C2=O
inactive: Hs-578T 19 µM | PC-3 12 µM | MCF7 12.2 µM | MDA-MB-231 2.84 µM

O=C(/C=C1\Nc2ccc([N+](=O)[O-])cc2N=C1NC12CC3CC(CC(C3)C1)C2)c1ccccc1
inactive: Hs-578T 3.76 µM | PC-3 > 10 µM | MCF7 > 10 µM | MDA-MB-231 4.7 µM

NC(=O)c1ccc[n+](C2=C([N-]S(=O)(=O)c3ccccc3)C(=O)c3ccccc3C2=O)c1
inactive: Hs-578T 22 µM | PC-3 15.9 µM | MCF7 14.8 µM | MDA-MB-231 18.1 µM

CC(=O)c1cccc(C)c1C(=O)O
inactive: DMS-114 > 100 µM | DLD-1 > 100 µM | HOP-18 > 100 µM

CSc1nc2c(c(=O)[nH]1)N=C(c1ccccc1)CC(c1ccccc1)N2 (centres undefined)
inactive: PC-3 55.1 µM | MCF7 12.3 µM | MDA-MB-231 18.5 µM

CC(C)/C(Cl)=N\OC(=O)Nc1cccc(Cl)c1
inactive: Hs-578T 28.3 µM | PC-3 15.9 µM | MCF7 15.8 µM | MDA-MB-231 15.2 µM

O=c1[nH]nc(Cc2ccccc2)n1O
inactive: Hs-578T > 100 µM | MCF7 > 100 µM | MDA-MB-231 > 100 µM

COc1cccc2c1-c1c(OC)cccc1SS2
inactive: Hs-578T 26.1 µM | PC-3 32.5 µM | MCF7 20.3 µM | MDA-MB-231 23.7 µM

COc1cc2ccc(C(=O)O)cc2cc1OC
inactive: XF498 > 100 µM | HOP-18 > 100 µM

C=CCOc1ccc(C(=N/NC(=O)c2ccccc2)/N=N/c2ccc(C)cc2)cc1OC
inactive: Hs-578T 23.4 µM | PC-3 25.7 µM | MCF7 35.1 µM | MDA-MB-231 24.4 µM

Cc1nn(C(=O)c2ccncc2)c2c1C(c1ccccc1O)SC(=N)N2 (centres undefined)
inactive: Hs-578T > 10 µM | PC-3 > 10 µM | MCF7 > 10 µM | MDA-MB-231 > 10 µM

COc1ccc(S(=O)(=O)NNS(C)(=O)=O)cc1OC
inactive: XF498 > 100 µM | DLD-1 > 100 µM

Nn1c(=S)[nH]nc(/C=C/c2c(O)ccc3ccccc23)c1=O
inactive: PC-3 11.1 µM | MCF7 2.72 µM

CCC1=C(CC)C1(C#N)[N+](=O)[O-]
inactive: DMS-114 > 100 µM | DLD-1 > 100 µM

O=C(/C=C\c1ccccc1-c1ccccc1)c1ccccc1
inactive: Hs-578T > 100 µM | MDA-MB-231 12.2 µM

CC(C)c1cccc(C(C)C)c1NC(=O)CCC(=O)NN
inactive: DMS-114 > 100 µM | DLD-1 > 100 µM | HOP-18 > 100 µM

O=C(CC/C(CC(=O)c1ccc(Cl)cc1)=N\O)Nc1cccc(Cl)c1
inactive: DMS-114 > 100 µM | XF498 > 100 µM | DLD-1 > 100 µM

CCOP(=O)(OCC)OC1c2[nH]ccc2-c2cc(C(=O)OC)[nH]c2C1OC (centres undefined)
inactive: Hs-578T 44.2 µM | PC-3 66.8 µM | MCF7 > 100 µM | MDA-MB-231 31.6 µM

CCSC1=N/C(=C/c2ccccc2O)C(=O)N1
inactive: Hs-578T 33.7 µM | PC-3 > 100 µM | MCF7 > 100 µM | MDA-MB-231 90.6 µM

c1csc(-c2sc(-c3ccsc3)cc2Cc2ccsc2)c1
inactive: PC-3 > 10 µM | MCF7 > 10 µM | MDA-MB-231 > 10 µM

CC(=O)O[C@H]1[C@@H](OC2CCCC2(c2ccccc2)c2ccccc2)O[N+]([O-])=C[C@@H]1c1ccccc1 (some centres undefined)
inactive: Hs-578T 6.53 µM | PC-3 8.24 µM | MCF7 3.48 µM | MDA-MB-231 12.6 µM

COc1ccc(/C=N/N=C(\N)NO)c(OC)c1OC
inactive: Hs-578T > 100 µM | PC-3 36.3 µM | MCF7 11.5 µM | MDA-MB-231 65.2 µM

O=CNCCCN1CCN(CCCNC=O)CC1
inactive: PC-3 > 100 µM | MCF7 > 100 µM | MDA-MB-231 > 100 µM

CC1CC/C(=C\c2ccc(F)cc2)C2=C1C(c1ccc(F)cc1)NC(=S)N2 (centres undefined)
inactive: Hs-578T > 100 µM | PC-3 30 µM | MCF7 53.3 µM | MDA-MB-231 47.8 µM

N#CC1=C(N)N2C(=O)/C(=C/c3ccccc3O)N=C2S1
inactive: Hs-578T 31.3 µM | PC-3 > 100 µM | MCF7 48.1 µM | MDA-MB-231 > 100 µM

Cc1cc2nc(C=C(C(F)(F)F)C(F)(F)F)sc2cc1C
inactive: Hs-578T 1.87 µM | PC-3 1.65 µM | MCF7 2.63 µM | MDA-MB-231 2.82 µM

From ChEMBL document CHEMBL1201862, “PubChem BioAssay data set” (2004)
